One may read the IC50 as the midpoint of a concentration-inhibition curve. A word on the EC50: it is the concentration needed to bring the measured effect to its halfway point.

In assay [1] the target is HCV NS3/4A protease genotype 1b (Hepatitis C virus genotype 1b, UniProt P26663). The assay is described as follows: HCV NS3/4A protease time-resolved fluorescence (TRF) assay, Ki against genotype 1b. The format is biochemical. Put shortly:
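Ki values come from IC50 fits corrected for substrate concentration and KM. The time-resolved fluorescence protease reaction used 25 nM peptide substrate, 2.5 h, room temperature, pH 7.5 HEPES buffer, after 30 min enzyme–inhibitor preincubation.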

Assay [2] addresses HCV NS3/4A protease genotype 3a (Hepatitis C virus genotype 3a, UniProt Q81495). As to the kind of experiment: HCV NS3/4A protease time-resolved fluorescence (TRF) assay, Ki against genotype 3a. The format is biochemical. On the procedure:
(§1) Measuring NS3/4A Inhibitory Activity (Ki) Against Genotype 1b, Against A156T Mutants and Against Genotype 3a
(§2) One assay for measuring inhibitory activity is HCV NS3 protease time-resolved fluorescence (TRF) assay as described below and in Mao et al., Anal. Biochem. 373:1-8, 2008 and International Patent Application Publication WO 2006/102087. A NS3 protease assay can be performed, for example, in a final volume of 20 μl assay buffer containing 50 mM HEPES, pH 7.5, 150 mM NaCl, 15% glycerol, 0.15% TRITON X-100, 10 mM DTT, and 0.1% PEG 8000. NS3 and NS4A protease is pre-incubated with various concentrations of inhibitors in DMSO for 30 min. The reaction is initiated by adding the TRF peptide substrate (final concentration 25 nM). NS3 mediated hydrolysis of the substrate was run for 2.5 hours at room temperature. Product fluorescence is detected using A Pherastar Plus plate reader (BMG) or Envision (Perkin Elmer Life and Analytical Sciences with excitation at 340 nm and emission at 615 nm using the appropriate delay time optimized for the europium fluorescence probe. Testing concentrations of different enzyme forms are selected to result in a signal to background ratio (S/B) of 10-30. IC50 values are derived using a standard four-parameter fit to the data. Ki values are derived from IC50 values using the following formula, IC50=Ki(1+[S]/KM), Eqn (1), where [S] is the concentration of substrate peptide in the reaction and KM is the Michaelis constant. See P. Gallinari et al., 38 BIOCHEM. 5620-32 (1999); P. Gallinari et al., 72 J. VIROL. 6758-69 (1998); M. Taliani et al., 240 ANAL. BIOCHEM. 60-67 (1996); Mao et al., Analytical Biochemistry 373: 1-8, 2008.
(§3) The assay described above was run against genotype 1b at a concentration of 0.2 nM, against A156T mutant strains at a concentration of 0.4 nM, and against genotype 3a at a concentration of 0.025 nM.

For assay [3], the target named is HCV NS3/4A protease A156T mutant (Hepatitis C virus genotype 1b, UniProt P26663, A1182T). As to the kind of experiment: HCV NS3/4A protease time-resolved fluorescence (TRF) assay, Ki against A156T mutant. The format is biochemical. The following applies: read-out: IC50 [gt-1b A156T]. On the procedure: as §1, §2, §3
In assay [4] the test system is HCV genotype 1b replicon. As to the kind of experiment: HCV replicon assay, genotype 1b replicon EC50. It counts as cell-based, Hepatitis C virus. Conditions: Hepatitis C virus, genotype 1b replicon, read-out: EC50 [gt-1b]. In short, it runs like this: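 Cells harbouring a stable replicon are grown under G418 selection, then plated with test compound in G418-free medium for 24-48 hours. After washing and lysis, RNA or luciferase signal is measured and expressed as percent of DMSO control to give EC50.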
(A replicon is a self-replicating genome or part of one, used to study replication in cells.)

[5] abbreviates: IC50 [gt-1b], NS3/4A protease TRF assay, genotype 1b enzyme 0.2 nM.
Where [6] appears, read: NS3/4A gt-1b A156T mutant, enzyme 0.4 nM.
Where [7] appears, read: IC50 [gt-1b] (nM), NS3/4A genotype 1b, enzyme 0.2 nM.

Read-outs that look alike come from different tables or passages of the source.

`C=C[C@@H]1C[C@]1(NC(=O)[C@@H]1C[C@]23CCc4c(c(nc5ccc(OC)cc45)CCCCC[C@@H]4C[C@H]4OC(=O)N[C@@H](C(C)(C)C)C(=O)N1C2)O3)C(=O)NS(=O)(=O)C1(C)CC1` [Example 527]: the IC50 amounted to 0.026 nM in assay [1] (setting [5]) and 0.679 nM in assay [2].
`Cc1nc2ccccc2c2c1O[C@]1(CC2)C[C@H]2C(=O)N[C@]3(C(=O)NS(=O)(=O)C4(C)CC4)C[C@H]3/C=C\CCCCC[C@H](NC(=O)OC3(C)CC3)C(=O)N2C1` [Example 79, 1-methylcyclopropyl [(2R,6S,12Z,13aS,14aR,16aS)-5′-methyl-14a-{[(1-methylcyclopropyl)sulfonyl]carbamoyl}-5,16-dioxo-1,1′,2′,5,6,7,8,9,10,11,13a,14,14a,15,16,16a-hexadecahydrospiro[cyclopropa[e]pyrrolo[1,2-a][1,4]diazacyclopentadecine-2,3′-pyrano[2,3-c]quinolin]-6-yl]carbamate]: in assay [3] (setting [6]), the IC50 is 0.151 nM. Moreover, the EC50 in assay [4] is 1.69 nM.
As to `COc1ccc2nc(C(F)(F)F)c3c(c2c1)[C@](C)(O)C[C@]1(C[C@H]2C(=O)N[C@]4(C(=O)NS(=O)(=O)C5(C)CC5)C[C@H]4/C=C\CCCCC[C@H](NC(=O)OC4(C)CCC4)C(=O)N2C1)O3` [Example 507, 1-methylcyclobutyl [(1′R,2S,6S,12Z,13aS,14aR,16aS)-1′-hydroxy-9′-methoxy-1′-methyl-14a-{[(1-methylcyclopropyl)sulfonyl]carbamoyl}-5,16-dioxo-5′-(trifluoromethyl)-1,1′,2′,5,6,7,8,9,10,11,13a,14,14a,15,16,16a-hexadecahydrospiro[cyclopropa[e]pyrrolo[1,2-a][1,4]diazacyclopentadecine-2,3′-pyrano[2,3-c]quinolin]-6-yl]carbamate], the IC50 in assay [1] (setting [5]) was determined as 0.025 nM; in assay [3] (NS3/4A protease TRF assay, A156T mutant enzyme 0.4 nM) it was 2.37 nM; in assay [2], 4.45 nM.
Regarding `COCCCOc1ccc2nc(C(F)(F)F)c3c(c2c1)CC[C@]1(C[C@H]2C(=O)N[C@]4(C(=O)NS(=O)(=O)C5(C)CC5)C[C@H]4/C=C\CCCCC[C@H](NC(=O)OC4(C)CCC4)C(=O)N2C1)O3` [Example 522, 1-methylcyclobutyl [(2R,6S,12Z,13aS,14aR,16aS)-9′-(3-methoxypropoxy)-14a-{[(1-methylcyclopropyl)sulfonyl]carbamoyl}-5,16-dioxo-5′-(trifluoromethyl)-1,1′,2′,5,6,7,8,9,10,11,13a,14,14a,15,16,16a-hexadecahydrospiro[cyclopropa[e]pyrrolo[1,2-a][1,4]diazacyclopentadecine-2,3′-pyrano[2,3-c]quinolin]-6-yl]carbamate], the IC50 in assay [1] (IC50 [gt-1b], NS3/4A protease TRF assay, genotype 1b enzyme 0.2 nM, K+ salt) is 0.005 nM; in assay [3] (NS3/4A protease TRF assay, A156T mutant enzyme 0.4 nM, K+ salt), 0.281 nM; in assay [2], 0.311 nM.
`Cc1nc2ccccc2c2c1O[C@@]1(CC2)C[C@H]2C(=O)N[C@]3(C(=O)NS(=O)(=O)C4(C)CC4)C[C@H]3/C=C\CCCCC[C@H](NC(=O)NC(C)(C)C)C(=O)N2C1` [Example 78, (2S,6S,12Z,13aS,14aR,16aS)-6-[(tert-butylcarbamoyl)amino]-5′-methyl-N-[(1-methylcyclopropyl)sulfonyl]-5,16-dioxo-1,1′,2′,6,7,8,9,10,11,13a,14,15,16,16a-tetradecahydrospiro[cyclopropa[e]pyrrolo[1,2-a][1,4]diazacyclopentadecine-2,3′-pyrano[2,3-c]quinoline]-14a(5H)-carboxamide]: the IC50 in assay [3] (setting [6]) is 3.11 nM. For the same compound, the EC50 in assay [4] turned out to be 85 nM.
Consider `CCCCOC(=O)N[C@H]1CCCCC/C=C\[C@@H]2C[C@@]2(C(=O)NS(=O)(=O)C2(C)CC2)NC(=O)[C@@H]2C[C@]3(CCc4c(c(C5CC5)nc5cc(OC)ccc45)O3)CN2C1=O` [Example 272, butyl [(2R,6S,12Z,13aS,14aR,16aS)-5′-cyclopropyl-8′-methoxy-14a-{[(1-methylcyclopropyl)sulfonyl]carbamoyl}-5,16-dioxo-1,1′,2′,5,6,7,8,9,10,11,13a,14,14a,15,16,16a-hexadecahydrospiro[cyclopropa[e]pyrrolo[1,2-a][1,4]diazacyclopentadecine-2,3′-pyrano[2,3-c]quinolin]-6-yl]carbamate], for which the IC50 in assay [1] (IC50 [gt-1b] (nM), NS3/4A genotype 1b, enzyme 0.2 nM, HCOOH salt) stood at 0.116 nM. Moreover, the EC50 in assay [4] (HCOOH salt) turned out to be 11.2 nM.
The compound `Cc1nc2ccc(OC(F)(F)F)cc2c2c1O[C@]1(CC2)C[C@H]2C(=O)N[C@]3(C(=O)NS(=O)(=O)C4(C)CC4)C[C@H]3/C=C\CCCCC[C@H](NC(=O)OC3CCCC3)C(=O)N2C1` [Example 125, cyclopentyl [(2R,6S,12Z,13aS,14aR,16a5)-5′-methyl-14a-{[(1-methylcyclopropyl)sulfonyl]carbamoyl}-5,16-dioxo-9′-(trifluoromethoxy)-1,1′,2′,5,6,7,8,9,10,11,13a,14,14a,15,16,16a-hexadecahydrospiro[cyclopropa[e]pyrrolo[1,2-a][1,4]diazacyclopentadecine-2,3′-pyrano[2,3-c]quinolin]-6-yl]carbamate] showed an IC50 in assay [1] (setting [7]) of 0.016 nM. Moreover, in assay [4], the EC50 was determined as 3.71 nM.
For `Cc1nc2ccccc2c2c1O[C@]1(CC2)C[C@H]2C(=O)N[C@]3(C(=O)NS(=O)(=O)C4(C)CC4)C[C@H]3/C=C\CCCCC[C@H](NC(=O)OC(C)C3CC3)C(=O)N2C1` (stereo partly drawn) [Example 126, 1-cyclopropylethyl [(2R,6S,12Z,13aS,14aR,16aS)-5′-methyl-14a-{[(1-methylcyclopropyl)sulfonyl]carbamoyl}-5,16-dioxo-1,1′,2′,5,6,7,8,9,10,11,13a,14,14a,15,16,16a-hexadecahydrospiro[cyclopropa[e]pyrrolo[1,2-a][1,4]diazacyclopentadecine-2,3′-pyrano[2,3-c]quinolin]-6-yl]carbamate] the same measures were 0.029 nM and 2.61 nM.
On the same counts, the results for `COc1ccc2nc(C(F)(F)F)c3c(c2n1)C(F)C[C@]1(C[C@H]2C(=O)N[C@]4(C(=O)NS(=O)(=O)C5(C)CC5)C[C@H]4/C=C\CCCCC[C@H](NC(=O)OC(C)(C)C)C(=O)N2C1)O3` (stereo partly drawn) [Example 33, tert-butyl ((2S,6S,13aS,14aR,16aS,Z)-10′-fluoro-2′-methoxy-14a-(((1-methylcyclopropyl)sulfonyl)carbamoyl)-5,16-dioxo-6′-(trifluoromethyl)-3,5,6,7,8,9,9′,10,10′, 11,13a,14,14a,15,16,16a-hexadecahydro-1H-spiro[cyclopropa[e]pyrrolo[1,2-a][1,4]diazacyclopentadecine-2,8′-pyrano[2,3-c][1,5]naphthyridin]-6-yl)carbamate] are 0.042 nM and 1.65 nM.
For `Cc1nc2ccccc2c2c1O[C@]1(CC2O)C[C@H]2C(=O)N[C@]3(C(=O)NS(=O)(=O)C4(C)CC4)C[C@H]3/C=C\CCCCC[C@H](NC(=O)OC(C)C)C(=O)N2C1` (stereo partly drawn) [Example 119, propan-2-yl [(2S,6S,12Z,14aR,16aS)-1′-hydroxy-5′-methyl-14a-{[(1-methylcyclopropyl)sulfonyl]carbamoyl}-5,16-dioxo-1,1′,2′,5,6,7,8,9,10,11,13a,14,14a,15,16,16a-hexadecahydrospiro[cyclopropa[e]pyrrolo[1,2-a][1,4]diazacyclopentadecine-2,3′-pyrano[2,3-c]quinolin]-6-yl]carbamate] the same measures were 0.031 nM and ~78.5 nM.

The values above are taken from patent publication US8987195B2 (priority 2012, dated 2015).
